Measurements taken from patent US4303785A, “Antitumor anthracycline antibiotics” (priority 1978, dated 1981).
≈ marks a conversion by molar mass, not a printed value. Where two headings read alike, the source gives them in different places.

How the values were obtained:
[1] = tested on: Bacillus megaterium APF; test: Minimum inhibitory concentration, broth dilution method (Table 3); format: cell-based
From the text: (§1) To illustrate such activity, minimum inhibitory concentrations (as determined by the broth dilution method) of representative compounds are shown in Table 3.

[2] = tested on: Micrococcus flavus FDA 16; test: as above; format: cell-based; conditions: for MIC: Micrococcus flavus, FDA16, Micrococcus flavus FDA 16; for Minimum Inhibitory Concentration (MIC): Micrococcus flavus FDA 16
From the text: as §1

[3] = tested on: Bacillus cereus ATCC 10702; test: as above; format: cell-based; conditions: for MIC: ATCC10702
From the text: as §1

[4] = tested on: Pseudomonas aeruginosa A3; test: as above; format: cell-based; conditions: for MIC: Pseudomonas aeruginosa, A3, Pseudomonas aeruginosa A3; for Minimum Inhibitory Concentration (MIC): Pseudomonas aeruginosa A3
From the text: as §1

[5] = tested on: Mycobacterium smegmatis ATCC 607; test: as above; format: cell-based; conditions: for MIC: Mycolicibacterium smegmatis, ATCC607
From the text: as §1

[6] = tested on: Staph. aureus FDA 209P; test: as above; format: cell-based; conditions: for MIC: Staphylococcus aureus, FDA209P
From the text: as §1

[7] = tested on: Candida albicans; test: as above; format: cell-based
From the text: as §1

[8] = tested on: Corynebacterium bovis 1810; test: as above; format: cell-based
From the text: as §1

[9] = tested on: Escherichia coli NIHJ; test: as above; format: cell-based
From the text: as §1

[10] = tested on: Sarcina lutea PCI 1001; test: as above; format: cell-based; conditions: for MIC: Micrococcus luteus, PCI1001
From the text: as §1

[11] = tested on: Staph. aureus Smith; test: as above; format: cell-based
From the text: as §1

[12] = tested on: Bacillus subtillis NRRLB-558; test: as above; format: cell-based; conditions: for MIC: Bacillus, NRRLB558, Bacillus subtillis NRRLB-558; for Minimum Inhibitory Concentration (MIC): Bacillus subtillis NRRLB-558
From the text: as §1

[13] = tested on: L1210 leukemia cells; test: Growth inhibitory effect on L1210 cells in culture (Table 4); format: cell-based; conditions: for inhibition at 0.1 µg/mL / inhibition at 0.5 µg/mL: Mus musculus
Procedure: For example, L1210 cells (5×10^4 cells/ml.) were inoculated in RPMI 1640 medium (Roswell Park Memorial Institute 1640) containing 20% calf serum and cultivated at 37° C. in the presence of 0.1 and 0.5 μg./ml. of the test compounds in a CO2 incubator.

[14] = tested on: L1210 cells; test: Inhibition of 14C-uridine and 14C-thymidine incorporation (nucleic acid synthesis) in L1210 cells in culture (Table 5); format: cell-based; conditions: for IC50: Mus musculus, L1210, 1 h
Procedure: The effect of the tetrahydropyranyl ether derivatives of formula I' on nucleic acid synthesis was examined as follows: […]
1×10^5 cells/ml. of L1210 cells were suspended in RPMI medium containing 10% calf serum, pre-cultivated at 37° C. for 1 to 2 hours in a CO2 incubator and then the test compounds were added to the medium at various concentrations. After 15 min. of incubation, ^14 C-uridine (0.05 μCi/ml.) or ^14 C-thymidine (0.05 μCi/ml.) was added and incubated at 37° C. for 60 min. Trichloroacetic acid (TCA) (10%) was added to the incubation medium to stop the reaction and precipitate the acid-insoluble materials, and then the precipitate was washed three times with 5 to 10% […]. The radioactivity was measured and expressed as 50% inhibition concentration of incorporation.

[15] = tested on: L1210 leukemia; test: Antitumor activity in BDF1 mice inoculated with L1210 leukemia cells (Table 6); format: in vivo; conditions: once daily for 10 days
From the text: As an example, BDF1 mice were inoculated intraperitoneally with 1×10^6 cells/mouse of L1210 leukemia cells.

[16] = tested on: various experimental tumors; conditions: cited from earlier work
[17] = tested on: L1210 cells; test: animal or person; format: in vivo, CDF1 mice; conditions: once daily for 10 days
Procedure: D. Representative compounds of general formula I" were tested against experimental animal tumors as follows: […]
CDF1 mice were administered intraperitoneally (i.p.) with 1×10^5 cells/mouse of L1210 cells. After 24 hours had elapsed since inoculation, the mice were administered the test compounds intraperitoneally once daily for 10 consecutive days and observed for a 45 day period.
The antitumor activity was shown by the prolongation rate of survival day (T/C, %) to the survival day of control mice injected with physiological saline.

[18] = in vivo; cited from earlier work
[19] = tested on: NADPH-cytochrome P450 reductase; test: Stability on rat hepatic NADPH-cytochrome P450 reductase: 7-deoxyaglycone formed (Table 7); format: in vitro ADME; conditions: 25° C., 25 min., nitrogen; substrate 0.1 mM, NADPH 0.2 mM, enzyme 4.6 μg./ml, pH 8.0
Procedure: C. The marked antitumor effects seen from A and B above were confirmed by the stability of the test compounds on the inactivation by hepatic NADPH-cytochrome P450 reductase. Specifically, NADPH-cytochrome P450 reductase purified from rat liver homogenate was incubated with the tetrahydropyranyl ether derivatives of formula I' at 25° C. for 25 min. in nitrogen gas phase, and the incubation product formed, 7-deoxyaglycone, was determined as shown in Table 7.

[20] = L1210, 0.1 μg./ml., read-out: Inhibition Rate (growth)
[21] = L1210, 0.5 μg./ml., read-out: Inhibition Rate (growth)
[22] = thymidine, 60 min. at 37° C., read-out: 50% Inhibition Concentration of 14C-Thymidine Incorporation
[23] = uridine, 60 min. at 37° C., read-out: 50% Inhibition Concentration of 14C-Uridine Incorporation
[24] = L1210, read-out: Inhibition Rate (growth)

SMILES	MIC [2] [µg/mL]	MIC [3] [µg/mL]	MIC [4] [µg/mL]	MIC [5] [µg/mL]	MIC [6] [µg/mL]	MIC [7] [µg/mL]	MIC [8] [µg/mL]	MIC [9] [µg/mL]	MIC [10] [µg/mL]	MIC [12] [µg/mL]	inhibition at 0.1 µg/mL [13, 20] [%]	inhibition at 0.5 µg/mL [13, 21] [%]	Antitumor Activity (T/C, prolongation rate of survival day) ([15]; 0.15 mg./kg./day i.p.) [%]	Antitumor Activity (T/C, prolongation rate of survival day) ([15]; 0.3 mg./kg./day i.p.) [%]	Antitumor Activity (T/C, prolongation rate of survival day) ([15]; 0.6 mg./kg./day i.p.) [%]	Antitumor Activity (T/C, prolongation rate of survival day) ([15]; 1.25 mg./kg./day i.p.) [%]	Antitumor Activity (T/C, prolongation rate of survival day) ([15]; 2.5 mg./kg./day i.p.) [%]	Minimum Inhibitory Concentration (MIC) [1] [µg/mL]	Minimum Inhibitory Concentration (MIC) [11] [µg/mL]	Antitumor Activity (T/C, prolongation rate of survival day) ([15]; 5 mg./kg./day i.p.) [%]	other results
COc1cccc2c1C(=O)c1c(O)c3c(c(O)c1C2=O)C[C@@](O)(C(=O)CO)C[C@@H]3O[C@H]1C[C@H](N)[C@H](OC2CCCCO2)[C@H](C)O1 (single isomer, unassigned; isomer a) [4'-O-PAa, 4'-O-tetrahydropyranyl adriamycin (isomer a)]	3.12 (≈ 4.97 µM)	6.25 (≈ 9.96 µM)	> 100	100 (≈ 159 µM)	6.25 (≈ 9.96 µM)	> 100	3.12 (≈ 4.97 µM)	> 100	0.78 (≈ 1.24 µM)	3.12 (≈ 4.97 µM)	65.9	81.1	127	120	187	180	173				MIC ([1]; Priestia megaterium): 3.12 µg/mL (≈ 4.97 µM); MIC ([11]; Staphylococcus aureus): 6.25 µg/mL (≈ 9.96 µM); IC50 [14, 22]: 0.37 µg/mL (≈ 0.59 µM); IC50 [14, 23]: 0.2 µg/mL (≈ 0.319 µM)
COc1cccc2c1C(=O)c1c(O)c3c(c(O)c1C2=O)C[C@@](O)(C(C)=O)C[C@@H]3O[C@H]1C[C@H](N)[C@H](O)[C@H](C)O1 [Daunomycin, daunomycin, reference compound]																					inhibition at 0.1 µg/mL [13, 24]: 68.8%; inhibition at 0.5 µg/mL [13, 24]: 72.7%; IC50 ([14]; read-out: 50% Inhibition Concentration of 14C-Thymidine Incorporation): 0.7 µg/mL (≈ 1.33 µM); IC50 ([14]; read-out: 50% Inhibition Concentration of 14C-Uridine Incorporation): 0.4 µg/mL (≈ 0.758 µM); antitumor spectrum [16]: broad antitumor spectrum against various experimental tumors; Antitumor Activity (T/C, prolongation rate of survival day) ([17]; 5 mg/kg/day i.p.): Tox.; response vs control in vivo at 0.15 mg/kg ([17]; Mus musculus, L1210, ip, 1080 h, 0.15 mg/kg/day i.p., read-out: Antitumor Activity (T/C, prolongation rate of survival day)): 118%; response vs control in vivo at 0.31 mg/kg ([17]; Mus musculus, L1210, ip, 1080 h, 0.31 mg/kg/day i.p., read-out: Antitumor Activity (T/C, prolongation rate of survival day)): 132%; response vs control in vivo at 0.625 mg/kg ([17]; Mus musculus, L1210, ip, 1080 h, 0.625 mg/kg/day i.p., read-out: Antitumor Activity (T/C, prolongation rate of survival day)): 145%; response vs control in vivo at 1.25 mg/kg ([17]; Mus musculus, L1210, ip, 1080 h, 1.25 mg/kg/day i.p., read-out: Antitumor Activity (T/C, prolongation rate of survival day)): 191%; response vs control in vivo at 2.5 mg/kg ([17]; Mus musculus, L1210, ip, 1080 h, 2.5 mg/kg/day i.p., read-out: Antitumor Activity (T/C, prolongation rate of survival day)): 138%; side effects in clinical use [18]: severe side effects such as alopecia, leukopenia and cardiotoxicity
COc1cccc2c1C(=O)c1c(O)c3c(c(O)c1C2=O)C[C@@](O)(C(=O)CO)C[C@@H]3O[C@H]1C[C@H](N)[C@H](OC2CCCCO2)[C@H](C)O1 (single isomer, unassigned; isomer b) [4'-O-PAb, 4'-O-tetrahydropyranyl adriamycin (isomer b)]													113	160	293	> 373	> 360	3.12	6.25	> 375	Minimum Inhibitory Concentration (MIC) [2]: 3.12 µg/mL; Minimum Inhibitory Concentration (MIC) [3]: 6.25 µg/mL; Minimum Inhibitory Concentration (MIC) [4]: > 100 µg/mL; Minimum Inhibitory Concentration (MIC) [5]: 100 µg/mL; Minimum Inhibitory Concentration (MIC) [6]: 6.25 µg/mL; Minimum Inhibitory Concentration (MIC) [7]: > 50 µg/mL; Minimum Inhibitory Concentration (MIC) [8]: 3.12 µg/mL; Minimum Inhibitory Concentration (MIC) [9]: > 100 µg/mL; Minimum Inhibitory Concentration (MIC) [10]: 0.78 µg/mL; Minimum Inhibitory Concentration (MIC) [12]: 3.12 µg/mL; Inhibition Rate (growth) ([13]; 0.1 μg./ml.): 78.1%; Inhibition Rate (growth) ([13]; 0.5 μg./ml.): 92.9%; 50% Inhibition Concentration of 14C-Thymidine Incorporation ([14]; thymidine, 60 min. at 37° C.): 0.50 µg/mL; 50% Inhibition Concentration of 14C-Uridine Incorporation ([14]; uridine, 60 min. at 37° C.): 0.24 µg/mL
COc1cccc2c1C(=O)c1c(O)c3c(c(O)c1C2=O)C[C@@](O)(C(C)=O)C[C@@H]3O[C@H]1C[C@H](N)[C@H](OC2CCCCO2)[C@H](C)O1 (single isomer, unassigned; isomer a) [4'-O-PDa, 4'-O-tetrahydropyranyl daunomycin (isomer a)]	0.78 (≈ 1.28 µM)	6.25 (≈ 10.2 µM)	> 100	6.25 (≈ 10.2 µM)	6.25 (≈ 10.2 µM)	> 50	0.78 (≈ 1.28 µM)	> 100	0.39 (≈ 0.638 µM)	3.12 (≈ 5.1 µM)	79.2	95	90	96	115	122	> 320	6.25	12.5	> 320	Product (7-Deoxyaglycone) [19]: 37.3 nmoles/tube; IC50 [14, 22]: 0.28 µg/mL (≈ 0.458 µM); IC50 [14, 23]: 0.13 µg/mL (≈ 0.213 µM)
COc1cccc2c1C(=O)c1c(O)c3c(c(O)c1C2=O)C[C@@](O)(C(C)=O)C[C@@H]3O[C@H]1C[C@H](N)[C@H](OC2CCCCO2)[C@H](C)O1 (single isomer, unassigned; isomer b) [4'-O-PDb, 4'-O-tetrahydropyranyl daunomycin (isomer b)]													90	103	115	122	256	3.12	3.12	> 320	Minimum Inhibitory Concentration (MIC) [2]: 1.56 µg/mL; Minimum Inhibitory Concentration (MIC) [3]: 6.25 µg/mL; Minimum Inhibitory Concentration (MIC) [4]: > 50 µg/mL; Minimum Inhibitory Concentration (MIC) [5]: 6.25 µg/mL; Minimum Inhibitory Concentration (MIC) [6]: 6.25 µg/mL; Minimum Inhibitory Concentration (MIC) [7]: 25 µg/mL; Minimum Inhibitory Concentration (MIC) [8]: 0.78 µg/mL; Minimum Inhibitory Concentration (MIC) [9]: > 100 µg/mL; Minimum Inhibitory Concentration (MIC) [10]: 0.39 µg/mL; Minimum Inhibitory Concentration (MIC) [12]: 1.56 µg/mL; Product (7-Deoxyaglycone) [19]: 46.6 nmoles/tube; Inhibition Rate (growth) ([13]; 0.1 μg./ml.): 74.6%; Inhibition Rate (growth) ([13]; 0.5 μg./ml.): 88.8%; 50% Inhibition Concentration of 14C-Thymidine Incorporation ([14]; thymidine, 60 min. at 37° C.): 0.32 µg/mL; 50% Inhibition Concentration of 14C-Uridine Incorporation ([14]; uridine, 60 min. at 37° C.): 0.20 µg/mL
